This data set can be described thus: Intravenous pharmacokinetic study in rats (tail vein injection). The conditions noted are these: FIG. 10, versus isonicotinate analogue. Format: in vivo, rat.

In the case of `CCOC(=O)c1ccc[n+](COC(=O)N[C@@H](C)Cc2ccccc2)c1` [AMP-CO2CH2-nicotinate(Et), d-amphetamine-CO2CH2-nicotinate ethyl ester], the “exposure to d-amphetamine after intravenous administration compared to AMP-CO2CH2-isonicotinate(Et)” value was “decreases exposure to d-amphetamine”.

The values are drawn from patent US12091386B2, “D-amphetamine compounds, compositions, and processes for making and using the same” (Zevra Therapeutics, Inc., priority 2018, dated 2024).
